Read-outs that look alike come from different tables or passages of the source.
How the values were obtained:
[1] = parameters: method as in PMID 12236477; conditions: metabolites of omeprazole; cited from earlier work
[2] = Stability of spiked human plasma samples at LQC and HQC at different temperatures; assay type: in vitro ADME; conditions: plasma sample
Procedure: For preparation of plasma samples, blood was collected from human volunteer and centrifuged to separate the cellular components. Plasma was de-proteinated with acetonitrile (two times volume of plasma) and was used for spiking the analytes. A liquid-liquid extraction method, reported by Jin et al., [18], with slight modification was used for extraction of LSP and OMP. Known amount of LSP, OMP and IS were added to plasma (1 mL), and vortexed for 30 sec. 4 ml of extraction solvent (mixture of ethyl acetate and dichloromethane in 4:1 by volume) was added, vortexed for 2 min and centrifuged at 3000 × g for 10 min. The supernatant (organic) layer was separated and dried under a gentle stream of nitrogen gas. The dried residue was reconstituted with 0.2 mL of mobile phase and an aliquot (20 μL) was injected into the HPLC system. Blank and zero samples were also treated in the same manner.
The stability of the samples was also evaluated at the level of LQC and HQC of both the analytes. The LQC were 10 and 30 ng/mL while the HQC were 120 and 1200 ng/mL for LSP and OMP, respectively. […] The sample stored at –20 °C involved freeze-thawed cycles at a gap of 12 hours between the two-consecutive freeze-thawed cycles.
The stability of the samples was evaluated for short term and relatively long term (one month). […] The % recovery was calculated by comparing the % recovery (concentration recovered) with freshly prepared spiked samples.

[3] = Pharmacokinetics of levosulpiride 50 mg alone and co-administered with omeprazole 40 mg in healthy human volunteers (Phase-1); assay type: in vivo; conditions: for AUC(0-inf) / AUC(0-t) / Cmax / Tmax / half-life: human, plasma, oral; for CL/F: healthy human volunteers (n = 20), mean ± SD
Procedure: (§1) The developed method was applied for evaluation of pharmacokinetics drug-drug interaction between LSP and OMP in healthy human volunteers (n = 20). Both the drugs were administered to the healthy volunteers, their blood samples were collected at specified time points and analyzed for the drug content, using the developed method. Written consent form was signed by all the volunteers and purpose of the study was explained to them. They were physically examined and medical history was recorded. Age of the volunteers was 20–28 years, with mean body mass index (BMI) of […]. Complete blood count, creatinine clearance, and liver function tests of all the healthy human volunteers were performed. All the volunteers were non-smokers and had no history of addiction. They were instructed not to take any medicines for two weeks before the study.
(§2) The study was conducted according to the “World Medical Association Declaration of Helsinki-Ethical principles of medical research involving human subjects” and its amendments. This study was approved by the ethical committee, Department of Pharmacy, University of Swabi, KP, Pakistan (Application number F.NO.UOS/2022/Pharm.02). It was an open-label, randomized, crossover, pharmacokinetic interaction study. The volunteers were divided into two groups of same size (n = 10) and the trial was conducted in two phases and two sequences, as follows;
Phase-1: First phase of the study consisted of two cycles with a wash out period of 14 days. During first phase of the study;
• Group-I: OMP 40 mg was administered twice a day for 6 days, and on the 7th day a single dose of LSP 50 mg was administered • Group-II: LSP 50 mg was administered alone as a single dose
Blood samples (3 mL) were collected at 0, 0.25, 0.5, 1, 2, 3, 4, 6, 8, 12, 24 and 36 hours. After 14 days washout period;
• Group-I: LSP 50 mg was administered alone • Group-II: OMP 40 mg, was administered twice a day for 6 days, on the 7th day LSP 50 mg was administered
(§3) The pharmacokinetic parameters were determined using non-compartmental analysis using PK-Summit (version 2.0.2). The plasma concentration of the drug (ng/mL) versus time (hour) profile was constructed for both drugs when administered alone and in combination with each another. The pharmacokinetic parameters like peak plasma concentration (Cmax), time to reach peak plasma concentration (Tmax), area under the concentration-time curve from zero time to time-t (AUC0-t) i.e. AUC0-36 for LSP and AUC0-12 for OMP, area under the concentration-time curve from zero time to infinity (AUC0-∞), elimination half-life (t1/2) and clearance (CL) were determined.
(§4) All the analysis was performed as per ICH guidelines using mean, standard deviation, and relative standard deviation. In the pharmacokinetic studies, the parameter values were compared using a t-test. The P-value (t-test) was calculated using the IBM SPPS statistics version 20. A p < 0.05 (95% confidence interval) was considered to be significant.

[4] = cited from earlier work
[5] = Pharmacokinetics of omeprazole 40 mg alone and co-administered with levosulpiride 50 mg in healthy human volunteers (Phase-2); assay type: in vivo
Procedure: as §1, §2
Phase-2 of the study was started after one month of the completion of Phase-1, as follows;
• Group-I: LSP 50 mg was given for 6 days twice a day and on the 7th day single dose of OMP 40 mg was administered • Group-II: OMP 40 mg was administered alone.
The blood was sampled at 0, 0.25, 0.5, 1, 2, 3, 4, 6, 8, and 12 hours.
After 14 days washout period, the pattern of drug administration was reversed as follows;
• Group-I: OMP 40 mg was administered alone. • Group-II: LSP 50 mg was given for 6 days twice a day and on the 7th day single dose of OMP 40 mg was administered
as §3, §4

[6] = levosulpiride with omeprazole versus alone, not significant
[7] = plasma, oral, omeprazole 40 mg alone, healthy human volunteers (n = 20), mean ± SD

In the case of COc1ccc2nc([S+]([O-])Cc3ncc(CO)c(OC)c3C)[nH]c2c1 (stereo not shown) [5-hydroxy omeprazole], the pharmacological activity [1] is given as “pharmacologically inactive”.

For CCN1CCC[C@H]1CNC(=O)c1cc(S(N)(=O)=O)ccc1OC [Levosulpiride], the “% recovery (mean)” value ([2]; High QC (120 ng/ml), 15 °C for 12 hours (autosampler temperature)) was 99.67%, the “% recovery (mean)” value ([2]; High QC (120 ng/ml), -20 °C for 24 hours) was 99.17% and the “% recovery (mean)” value ([2]; High QC (120 ng/ml), -20°C for one month, three freezed cycles) was 98.33%. The “% recovery (mean)” value ([2]; High QC (120 ng/ml), RT for 24 hours) was 98.00%, the “% recovery (mean)” value ([2]; Low QC (10ng/ml), 15 °C for 12 hours (autosampler temperature)) was 98.36% and the “% recovery (mean)” value ([2]; Low QC (10ng/ml), -20 °C for 24 hours) was 98.75%. The “% recovery (mean)” value ([2]; Low QC (10ng/ml), -20°C for one month, three freezed cycles) was 96.90%, the “% recovery (mean)” value ([2]; Low QC (10ng/ml), RT for 24 hours) was 96.80% and the AUC(0-inf) [3] was 2210 ± 577 ng·h/mL. For the same molecule, the AUC(0-t) [3] was 1770 ± 482 ng·h/mL, the Cmax [3] was 118 ± 26.3 ng/mL and the Tmax [3] was 3.71 ± 0.75 h. It also gave a half-life [3] of 12.7 ± 4.76 h, an AUC(0-inf) ([3]; 50 mg) of 1870 ± 627 ng·h/mL and an AUC(0-t) ([3]; 50 mg) of 1540 ± 473 ng·h/mL. It also gave a Cmax ([3]; 50 mg) of 109 ± 24.9 ng/mL, a Tmax ([3]; 50 mg) of 3.8 ± 1.05 h and a half-life ([3]; 50 mg) of 13.3 ± 2.64 h. The CL/F ([3]; levosulpiride 50 mg alone) was 35832 ± 8402 mL/h, the CL/F ([3]; levosulpiride 50 mg with omeprazole 40 mg) was 30333 ± 6326 mL/h and the “increase of AUC0-t” value [3, 6] was 14.52%. For the same molecule, the “increase of AUC0-∞” value [3, 6] was 18.36%, the “increase of Cmax” value [3, 6] was 8.79% and the “reduction of CL” value [3, 6] was 15.34%. For the same molecule, the elimination half-life ([4]; depending upon route of administration, dosage form and dose) was 6 to 19 h, the elimination half-life ([4]; orally administered LSP 25 mg) was 12.0 h and the elimination half-life ([4]; orally administered LSP 50 mg) was 12.6 h. The elimination half-life ([4]; orally administered LSP 100 mg) was 14.3 h.

In the case of COc1ccc2[nH]c([S+]([O-])Cc3ncc(C)c(OC)c3C)nc2c1 (stereo not shown) [Omeprazole], the “% recovery (mean)” value ([2]; High QC (1200 ng/ml), 15 °C for 12 hours (autosampler temperature)) is reported as 99.31%, the “% recovery (mean)” value ([2]; High QC (1200 ng/ml), -20 °C for 24 hours) is reported as 99.48% and the “% recovery (mean)” value ([2]; High QC (1200 ng/ml), -20°C for one month, three freezed cycles) is reported as 98.80%. The “% recovery (mean)” value ([2]; High QC (1200 ng/ml), RT for 24 hours) was 98.35%, the “% recovery (mean)” value ([2]; Low QC (30 ng/ml), 15 °C for 12 hours (autosampler temperature)) was 98.66% and the “% recovery (mean)” value ([2]; Low QC (30 ng/ml), -20 °C for 24 hours) was 99.33%. For the same molecule, the “% recovery (mean)” value ([2]; Low QC (30 ng/ml), -20°C for one month, three freezed cycles) was 98.73%, the “% recovery (mean)” value ([2]; Low QC (30 ng/ml), RT for 24 hours) was 96.11% and the AUC(0-inf) ([5]; human, plasma, oral) was 6490 ± 1610 ng·h/mL. The AUC(0-t) ([5]; human, plasma, oral) was 5950 ± 1430 ng·h/mL, the Tmax ([5]; human, plasma, oral) was 1.85 ± 0.83 h and the half-life ([5]; human, plasma, oral) was 2.23 ± 1.03 h. For the same molecule, the CL/F ([5]; omeprazole 40 mg alone, healthy human volunteers (n = 20), mean ± SD) was 7118.71 ± 2407.41 mL/h, the CL/F ([5]; omeprazole 40 mg with levosulpiride 50 mg, healthy human volunteers (n = 20), mean ± SD) was 7100.69 ± 2001.55 mL/h and the AUC(0-t) ([5]; plasma, oral, omeprazole 40 mg alone, AUC0-12, healthy human volunteers (n = 20), mean ± SD) was 6090 ± 1480 ng·h/mL. The AUC(0-inf) [5, 7] was 6650 ± 1650 ng·h/mL, the Tmax [5, 7] was 1.95 ± 0.99 h and the half-life [5, 7] was 2.3 ± 0.94 h. For the same molecule, the Cmax ([5]; plasma, oral, omeprazole 40 mg single dose administered alone, healthy human volunteers (n = 20), mean ± SD) was 1140 ± 262 ng/mL.

For COc1ccc2nc(S(=O)(=O)Cc3ncc(C)c(OC)c3C)[nH]c2c1 [omeprazole sulfone], the pharmacological activity [1] is given as “pharmacologically inactive”.

From publication PMC11361584 (PLOS ONE, 2024)
